# Results reported in US20090275648A1, “MACROCYCLIC GHRELIN RECEPTOR ANTAGONISTS AND INVERSE AGONISTS AND METHODS OF USING THE SAME” (priority 2005, published 2009).
# How the values were obtained:
# [1] = target: T1, human ghrelin receptor (hGHS-R1a) (Homo sapiens, UniProt Q92847); test: Competitive radioligand binding assay (ghrelin receptor), [125I]-ghrelin, GHS-R/HEK 293 membranes; conditions: competition with [125I]-ghrelin
# T1 construct: purchased PerkinElmer BioSignal #RBHGHSM, lot#1887; host or cells: HEK-293 cells, stably transfected; membranes
# T1 sequence (Q92847 whole entry): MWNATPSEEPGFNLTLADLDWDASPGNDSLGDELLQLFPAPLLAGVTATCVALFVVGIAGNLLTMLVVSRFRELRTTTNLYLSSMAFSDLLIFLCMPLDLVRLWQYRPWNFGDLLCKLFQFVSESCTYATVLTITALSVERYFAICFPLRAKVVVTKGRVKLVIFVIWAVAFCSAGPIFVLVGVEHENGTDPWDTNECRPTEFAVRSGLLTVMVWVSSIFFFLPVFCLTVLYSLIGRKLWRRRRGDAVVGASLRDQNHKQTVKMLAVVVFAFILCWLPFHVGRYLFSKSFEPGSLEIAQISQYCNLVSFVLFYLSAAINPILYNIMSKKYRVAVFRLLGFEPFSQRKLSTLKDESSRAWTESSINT
# Method: The competitive binding assay at the human growth hormone secretagogue receptor (HGHS-R1a) was carried out analogously to assays described in the literature. (Bednarek M A et al. Structure-function studies on the new growth hormone-releasing peptide ghrelin: minimal sequence of ghrelin necessary for activation of growth hormone secretagogue receptor 1a; J. Med. Chem. 2000, 43, 4370-4376; Palucki, B. L. et al. Spiro(indoline-3,4′-piperidine) growth hormone secretagogues as ghrelin mimetics; Bioorg. Med. Chem. Lett. […], 11, 1955-1957).
# Membranes (GHS-R/HEK 293) were prepared from HEK-293 cells stably transfected with the human ghrelin receptor (hGHS-R1a). These membranes were provided by PerkinElmer BioSignal (#RBHGHSM, lot#1887) and utilized at a quantity of 0.71 μg/assay point. • 1. [^125]-Ghrelin (PerkinElmer, #NEX-388); final concentration: 0.0070-0.0085 nM • 2. […] Multiscreen Harvest plates-GF/C (Millipore, #MAHFC1H60) • 4. Deep-well polypropylene titer plate (Beckman Coulter, #267006) • 5. TopSeal-A (PerkinElmer, #6005185) • 6. Bottom seal (Millipore, #MATAH0P00) • 7. MicroScint-0 (PerkinElmer, #6013611) • 8. Binding Buffer: 25 mM Hepes (pH 7.4), 1 mM CaCl2, 5 mM MgCl2, 2.5 mM EDTA, 0.4% BSA
# Competition experiments were performed in a 300 μl filtration assay format. • 1. 220 μL of membranes diluted in binding buffer • 2. 40 μL of compound diluted in binding buffer • 3.
# Compounds were provided frozen on dry ice at a stock concentration of 10 mM diluted in 100% DMSO and stored at −80° C. until the day of testing. On the test day, compounds were allowed to thaw at rt overnight and then diluted in assay buffer according to the desired test concentrations. Under these conditions, the maximal final DMSO concentration in the assay was 0.1%.
# In deep-well plates, 220 μL of diluted cell membranes (final concentration: 0.71 μg/well) were combined with 40 μL of either binding buffer (total binding, N=5), 1 μM ghrelin (non-specific binding, N=3) or the appropriate concentration of test compound N=2 for each test concentration). […] Plates were sealed with TopSeal-A, vortexed gently and incubated at rt for 30 min. The reaction was arrested by filtering samples through Multiscreen Harvest plates (pre-soaked in 0.5% polyethyleneimine) using a Tomtec Harvester, washed 9 times with 500 μL of cold 50 mM Tris-HCl (pH 7.4, 4° C.), and then plates were air-dried in a fumehood for 30 min. A bottom seal was applied to the plates prior to the addition of 25 μL of MicroScint-0 to each well. Plates were than sealed with TopSeal-A and counted for 30 sec per well on a TopCount Microplate Scintillation and Luminescence Counter (PerkinElmer) using a count delay of 60 sec. Results were expressed as counts per minute (cpm).
# Data were analyzed by GraphPad Prism (GraphPad Software, San Diego, Calif.) using a variable slope non-linear regression analysis.
# Dmax values were calculated using the following formula: […]
# where total and non-specific binding represent the cpm obtained in the absence or presence of 1 μM ghrelin, respectively.
# ghrelin receptor [2] = target: T2, ghrelin receptor (Homo sapiens, UniProt Q92847); test: Inverse agonist assay, Example 4; format: cell-based; conditions: inverse agonist activity
# T2 sequence (Q92847 whole entry): as above
# Excerpt: The inverse agonist activity at the ghrelin receptor for compounds of the invention can be determined using the methods described in Intl. Pat. Appl. Publ. No. WO 2004/056869 and Holst, B.; Cygankiewicz, A.; Halkjaer, T.; Ankersen, A.; Schwartz, T. W. High constitutive signaling of the ghrelin receptor—identification of a potent inverse agonist. Mol. Endocrinol. 2003, 17, 2201-2210.
# ghrelin receptor [3] = target: T2, ghrelin receptor; test: Aequorin functional assay (ghrelin receptor), Example 3; format: cell-based; set-up: host or cells: CHO-K1 cells co-expressing Gα16 and mitochondrially targeted Aequorin; conditions: for IC50: antagonist testing vs ghrelin at EC80 (3.7 nM)
# Excerpt: The functional activity of compounds of the invention found to bind to the GHS-R1a receptor can be determined using the method described below. (LePoul, E.; et al. Adaptation of aequorin functional assay to high throughput screening. J. Biomol. Screen. 2002, 7, 57-65; Bednarek, M. A.; et al. Structure-function studies on the new growth hormone-releasing peptide ghrelin: minimal sequence of ghrelin necessary for activation of growth hormone secretagogue receptor 1a. J. Med. Chem. 2000, 43, 4370-4376; Palucki, B. L.; et al. Spiro(indoline-3,4′-piperidine) growth hormone secretagogues as ghrelin mimetics. Bioorg. Med. Chem. Lett. 2001, 11, 1955-1957).
# Membranes were prepared using AequoScreen™ (EUROSCREEN, Belgium) cell lines expressing the human ghrelin receptor (cell line ES-410-A; receptor accession #60179). This cell line is constructed by transfection of the human ghrelin receptor into CHO-K1 cells co-expressing Gα16 and the mitochondrially targeted Aequorin (Ref #ES-WT-A5). • 1. Ghrelin (reference agonist; Bachem, #H-4864) • 2. Assay buffer: DMEM (Dulbecco's Modified Eagles Medium) containing 0.1% BSA (bovine serum albumin; pH 7.0. • 3. Coelenterazine (Molecular Probes, Leiden, The Netherlands)
# Stock solutions of compounds (10 mM in 100% DMSO) were provided frozen on dry ice and stored at −20° C. prior to use. From the stock solution, mother solutions were made at a concentration of 500 μM 20-fold dilution in 26% DMSO. Assay plates were then prepared by appropriate dilution in DMEM medium containing 0.1% BSA. Under these conditions, the maximal final DMSO concentration in the assay was <0.6%.
# AequoScreen™ cells were collected from culture plates with Ca^2+ and Mg^2+-free phosphate buffered saline (PBS) supplemented with 5 mM EDTA, pelleted for 2 minutes at 1000×g, re-suspended in DMEM-Ham's F12 containing 0.1% BSA at a density of 5×10^6 cells/ml and incubated overnight at room temperature in the presence of 5 μM coelenterazine. After loading, cells were diluted with assay buffer to a concentration of 5×10^5 cells/ml.
# For agonist testing, 50 μl of the cell suspension was mixed with 50 μl of the appropriate concentration of test compound or ghrelin (reference agonist) in 96-well plates (duplicate samples). Ghrelin (reference agonist) is tested at several concentrations concurrently with the test compounds in order to validate the experiment. The emission of light resulting from receptor activation in response to ghrelin or test compounds was recorded using the Hamamatsu FDSS 6000 reader (Hamamatsu Photonics K.K., Japan).
# For antagonist testing, an approximate EC80 concentration of ghrelin (i.e. 3.7 nM; 100 μL) was injected onto the cell suspension containing the test compounds (duplicate samples) 15-30 minutes after the end of agonist testing and the consequent emission of light resulting from receptor activation was measured as described in the paragraph above.
# Results are expressed as Relative Light Units (RLU). […] For agonist testing, results for each concentration of test compound were expressed as percent activation relative to the signal induced by ghrelin at a concentration equal to the EC80 (i.e. 3.7 nM). EC50, Hill slope and % Emax values are reported.
# For antagonist testing, results for each concentration of test compound were expressed as percent inhibition relative to the signal induced by ghrelin at a concentration equal to the EC80.
SMILES,Ki [1] [nM],IC50 (ghrelin receptor [2]) [nM],IC50 (ghrelin receptor [3]) [nM],"receptor activation (agonist activity) (ghrelin receptor [3]; agonist testing, in comparison to known ghrelin agonists)"
CCC(C)[C@@H]1NCCOc2ccccc2CCCNC(=O)[C@@H](Cc2ccc(F)cc2)NC(=O)[C@@H](COCc2ccccc2)N(C)C1=O (stereo partly drawn) [Compound 501],100 to 1000,–,–,–
CCC(C)[C@@H]1NCCOc2ccccc2/C=C/CNC(=O)[C@H](Cc2ccccc2)NC(=O)[C@@H](C)NC1=O (stereo partly drawn) [Compound 14],100 to 1000,–,–,–
CCC(C)[C@@H]1NCCOc2ccccc2CCCNC(=O)[C@@H](Cc2ccccc2)NC(=O)[C@@H](COC(C)(C)C)NC1=O (stereo partly drawn) [Compound 215],1000 to 10000,–,–,–
CCC[C@@H]1NCCOc2ccccc2CCCNC(=O)[C@@H](Cc2ccccc2)NC(=O)[C@H](C)NC1=O [Compound 59],1000 to 10000,–,–,–
CCC(C)[C@@H]1NCCOc2ccccc2CCCNC(=O)[C@@H](Cc2ccccc2)NC(=O)[C@@H](C)NC1=O (stereo partly drawn) [Compound 2],100 to 1000,–,–,–
CCC(C)[C@@H]1NCCOc2ccccc2CCCNC(=O)[C@@H](Cc2ccccc2)NC(=O)[C@H](C(C)O)N(C)C1=O (stereo partly drawn) [Compound 503],1 to 100,100 to 1000,1 to 100,–
CCC(C)[C@@H]1NCCOc2ccccc2CCCNC(=O)[C@@H](Cc2ccccc2)NC(=O)[C@@H](CO)NC1=O (stereo partly drawn) [Compound 151],1000 to 10000,–,–,–
CCC(C)[C@@H]1NCCOc2ccccc2CCCNC(=O)[C@@H](Cc2ccccc2)NC(=O)[C@@H](CO)N(C)C1=O (stereo in doubt) [Compound 152],100 to 1000,> 10000,100 to 1500,no receptor activation

# The next lines start with the values.
Ki [1] [nM],IC50 (ghrelin receptor [2]) [nM],IC50 (ghrelin receptor [3]) [nM],"receptor activation (agonist activity) (ghrelin receptor [3]; agonist testing, in comparison to known ghrelin agonists)",SMILES
100 to 1000,> 10000,100 to 1500,–,CCC(C)[C@@H]1NCCOc2ccccc2CCCNC(=O)[C@@H](Cc2ccccc2)NC(=O)[C@H](CCO)N(C)C1=O (stereo partly drawn) [Compound 506]
1000 to 10000,–,–,–,CC(C)C[C@@H]1NCCOc2ccccc2CCCNC(=O)[C@H](Cc2ccccc2)NC(=O)[C@@H](C)NC1=O [Compound 94]
1 to 100,–,100 to 1500,–,CCC(C)[C@@H]1NCCOc2ccccc2/C=C\CNC(=O)[C@@H](Cc2ccc(F)cc2)NC(=O)[C@H](C(C)O)N(C)C1=O (stereo partly drawn) [Compound 508]
1000 to 10000,–,–,–,CC(C)C[C@@H]1NCCOc2ccccc2CCCNC(=O)[C@H](Cc2ccccc2)NC(=O)[C@H](C)NC1=O [Compound 93]
100 to 1000,–,–,–,CCC[C@@H]1NCCOc2ccccc2CCCNC(=O)[C@@H](Cc2ccccc2)NC(=O)[C@@H](C)NC1=O [Compound 60]
100 to 1000,–,–,–,CCC[C@@H]1NCCOc2ccccc2CCCNC(=O)[C@@H](Cc2ccccc2)NC(=O)[C@H](C)N(C)C1=O [Compound 79]
1 to 100,100 to 1000,1 to 100,–,CCC(C)[C@@H]1NCCOc2ccccc2/C=C/CNC(=O)[C@@H](Cc2ccc(F)cc2)NC(=O)[C@H](C(C)O)N(C)C1=O (stereo partly drawn) [Compound 504]
100 to 1000,100 to 1000,100 to 1500,–,CC(O)[C@H]1C(=O)N[C@H](Cc2ccc(F)cc2)C(=O)NCCCc2ccccc2O[C@H](C)CN[C@@H](C2CC2)C(=O)N1C (stereo partly drawn) [Compound 505]
100 to 1000,–,> 1500,–,CC[C@@H](C)[C@H]1NCCOc2ccccc2CCCNC(=O)[C@@H](Cc2ccccc2)NC(=O)[C@H]([C@H](C)O)N(C)C1=O [Compound 509]
